What was measured:
NA transporter = biological target: T1, NA transporter (Rattus norvegicus, UniProt Q9WTR4); assay: Noradrenalin uptake inhibition (NA-uptake) in synaptosomes; type: biochemical; conditions: rat hypothalamus synaptosomes
T1 construct: synaptosomes from rat brain regions were freshly isolated; from tissue; host or cells: P2 synaptosome fraction from hypothalamus of male rat brain
Excerpt: Tests on Noradrenalin Uptake Inhibition (NA-Uptake Inhibition)
In order to be able to carry out these in vitro studies, synaptosomes from rat brain regions were freshly isolated.

α2A-receptor = biological target: T2, α2A-receptor (Homo sapiens, UniProt P08913); assay: α2A-assay, displacement of a marked ligand; type: binding; conditions: human receptor membranes, read-out: alpha2A human, 1 μM, % inhibition
T2 construct: purchased
T2 sequence (P08913 1-465): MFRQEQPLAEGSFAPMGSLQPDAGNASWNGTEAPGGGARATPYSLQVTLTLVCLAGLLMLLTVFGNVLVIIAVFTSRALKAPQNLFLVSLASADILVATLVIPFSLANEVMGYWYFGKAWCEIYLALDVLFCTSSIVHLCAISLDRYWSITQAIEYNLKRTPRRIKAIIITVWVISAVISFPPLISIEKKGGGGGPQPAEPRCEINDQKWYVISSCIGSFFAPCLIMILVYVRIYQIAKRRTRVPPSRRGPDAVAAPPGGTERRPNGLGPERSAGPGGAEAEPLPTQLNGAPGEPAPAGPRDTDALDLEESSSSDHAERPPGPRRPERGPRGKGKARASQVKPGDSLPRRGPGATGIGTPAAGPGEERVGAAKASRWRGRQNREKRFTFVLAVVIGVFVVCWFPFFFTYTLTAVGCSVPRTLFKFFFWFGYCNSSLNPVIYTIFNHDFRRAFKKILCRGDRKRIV
Method: The bond was measured here by the displacement of a marked ligand. The test was carried out according to J. P. Devlin's instructions, “High throughput screening—the discovery of bioactive substances”, p. 275-453, Marcel Dekker, New York, 1997. Membranes containing […] (human) were obtained commercially.
Compounds according to the invention were tested in this assay: the measured results are recited in Table 5: […]

5HT-uptake = biological target: T3, 5HT-uptake (Rattus norvegicus, UniProt P31652); assay: Serotonin uptake inhibition (5HT uptake) in synaptosomes; type: biochemical; conditions: rat brain synaptosomes
T3 construct: synaptosomes from rat brain regions were freshly isolated; from tissue; host or cells: P2 synaptosome fraction from rat brain regions
T3 sequence (P31652 whole entry): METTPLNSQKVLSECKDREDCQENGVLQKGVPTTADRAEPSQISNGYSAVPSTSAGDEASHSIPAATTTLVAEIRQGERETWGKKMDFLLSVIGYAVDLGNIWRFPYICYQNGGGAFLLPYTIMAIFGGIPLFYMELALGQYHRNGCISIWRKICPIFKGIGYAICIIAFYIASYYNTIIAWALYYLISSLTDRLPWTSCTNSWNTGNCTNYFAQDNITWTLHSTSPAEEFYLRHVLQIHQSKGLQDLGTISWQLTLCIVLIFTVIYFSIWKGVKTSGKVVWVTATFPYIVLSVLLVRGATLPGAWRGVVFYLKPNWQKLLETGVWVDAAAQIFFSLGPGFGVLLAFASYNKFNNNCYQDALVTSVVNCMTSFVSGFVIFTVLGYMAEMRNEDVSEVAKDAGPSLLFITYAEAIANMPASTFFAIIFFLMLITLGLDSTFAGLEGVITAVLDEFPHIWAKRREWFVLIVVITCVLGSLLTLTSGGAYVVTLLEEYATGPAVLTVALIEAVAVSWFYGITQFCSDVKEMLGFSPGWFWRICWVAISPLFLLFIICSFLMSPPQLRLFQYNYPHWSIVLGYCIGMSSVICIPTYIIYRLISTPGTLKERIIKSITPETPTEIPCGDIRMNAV

T1 sequence (Q9WTR4 1-597): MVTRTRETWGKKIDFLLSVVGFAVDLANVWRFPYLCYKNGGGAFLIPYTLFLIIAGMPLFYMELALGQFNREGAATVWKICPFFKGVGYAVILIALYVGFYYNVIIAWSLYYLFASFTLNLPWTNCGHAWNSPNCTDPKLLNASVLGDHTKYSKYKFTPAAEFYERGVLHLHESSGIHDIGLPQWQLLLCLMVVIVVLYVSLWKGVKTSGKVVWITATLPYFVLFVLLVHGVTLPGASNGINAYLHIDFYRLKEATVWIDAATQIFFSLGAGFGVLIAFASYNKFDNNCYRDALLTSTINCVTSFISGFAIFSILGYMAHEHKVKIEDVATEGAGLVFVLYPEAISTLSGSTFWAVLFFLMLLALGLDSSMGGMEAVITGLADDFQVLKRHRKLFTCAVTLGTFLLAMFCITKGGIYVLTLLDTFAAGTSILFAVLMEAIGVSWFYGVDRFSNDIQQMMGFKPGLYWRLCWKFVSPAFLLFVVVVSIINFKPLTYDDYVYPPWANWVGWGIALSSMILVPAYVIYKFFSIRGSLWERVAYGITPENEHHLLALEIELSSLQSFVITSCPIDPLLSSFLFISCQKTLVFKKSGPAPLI

| NA-uptake, 10 μM, % inhibition (NA transporter) [%] | 5HT-uptake, 10 μM, % inhibition (5HT-uptake) [%] | Compound | inhibition at 10 µM (NA transporter) [%] | inhibition at 1 µM (α2A-receptor) [%] | inhibition at 10 µM (5HT-uptake) [%] |
| --- | --- | --- | --- | --- | --- |
| – | – | O=C(NCC1COc2ccccc2O1)C1=NOC2(CCN(S(=O)(=O)c3cccs3)CC2)C1 (centres unmarked) [Example 21, 8-(thiophene-2-sulphonyl)-1-oxa-2,8-diaza-spiro[4,5]dec-2-ene-3-carboxylic acid (2,3-dihydro-benzo[1,4]dioxin-2-ylmethyl)-amide] | 61 | 31 | – |
| – | – | Cc1ccccc1N1CCN(C(=O)C2=NOC3(CCN(S(=O)(=O)c4cccs4)CC3)C2)CC1 [Example 27, [8-(thiophene-2-sulphonyl)-1-oxa-2,8-diaza-spiro[4,5]dec-2-en-3-yl]-(4-o-tolyl-piperazin-1-yl)-methanone] | 80 | 37 | 49 |
| – | – | CC(NC(=O)C1=NOC2(CCN(S(=O)(=O)c3cccs3)CC2)C1)c1cccc2c1OCCO2 (centres unmarked) [Example 84, 8-(thiophene-2-sulphonyl)-1-oxa-2,8-diaza-spiro[4,5]dec-2-ene-3-carboxylic acid [1-(2,3-dihydro-benzo[1,4]dioxin-5-yl)-ethyl]-amide] | 67 | – | 68 |
| – | – | CN(Cc1cccnc1)C(=O)C1=NOC2(CCN(S(=O)(=O)c3cccc(C(F)(F)F)c3)CC2)C1 [Example 101, 8-(3-trifluoromethyl-benzenesulphonyl)-1-oxa-2,8-diaza-spiro[4,5]dec-2-ene-3 carboxylic acid methyl-pyridin-3-ylmethyl-amide] | 43 | – | 46 |
| 49 | 41 | COc1ccc(S(=O)(=O)N2CCC3(CC2)CC(C(=O)NCCc2ccccc2F)=NO3)cc1 [Example 104] | – | – | – |
| – | – | Cc1ccc(CNC(=O)C2=NOC3(CCN(C(=O)c4ccc(Br)cc4)CC3)C2)o1 [Example 109, 8-(4-bromo-benzoyl)-1-oxa-2,8-diaza-spiro[4,5]dec-2-ene-3-carboxylic acid (5-methyl-furan-2-ylmethyl)-amide] | 40 | – | 56 |
| – | – | Cc1cc(C(=O)N2CCC3(CC2)CC(C(=O)NCc2ccncc2)=NO3)ccc1Br [Example 130, 8-(4-bromo-3-methyl-benzoyl)-1-oxa-2,8-diaza-spiro[4,5]dec-2-ene-3-carboxylic acid (pyridin-4-ylmethyl)-amide] | 61 | – | 64 |
| – | – | CN(C)S(=O)(=O)N1CCC2(CC1)CC(C(=O)N1CCN(C3CCCCCC3)CC1)=NO2 [Example 144, 3-(4-cycloheptyl-piperazine-1-carbonyl)-1-oxa-2,8-diaza-spiro[4,5]dec-2-ene-8 sulphonic acid dimethylamide] | 56 | – | 41 |
| – | – | Cc1ccc(F)cc1S(=O)(=O)N1CCC2(CC1)CC(C(=O)NCc1cccs1)=NO2 [Example 150, 8-(5-fluoro-2-methyl-benzenesulphonyl)-1-oxa-2,8-diaza-spiro[4,5]dec-2-ene-3-carboxylic acid (thiophen-2-ylmethyl)-amide] | 48 | – | 70 |
| – | – | COc1ccccc1C1CCN(C(=O)C2=NOC3(CCN(S(=O)(=O)c4ccc(Cl)s4)CC3)C2)CC1 [Example 151, [8-(5-chloro-thiophene-2-sulphonyl)-1-oxa-2,8-diaza-spiro[4,5]dec-2-en-3-yl]-[4-(2-methoxy-phenyl)-piperidin-1-yl]-methanone] | – | 33 | – |
| – | – | O=C(NCc1cccs1)C1=NOC2(CCN(S(=O)(=O)c3ccccc3Cl)CC2)C1 [Example 156, 8-(2-chloro-benzenesulphonyl)-1-oxa-2,8-diaza-spiro[4,5]dec-2-ene-3-carboxylic acid (thiophen-2-ylmethyl)-amide] | 60 | – | 41 |
| – | – | COc1ccc(S(=O)(=O)N2CCC3(CC2)CC(C(=O)NC(C)Cc2ccc(Cl)cc2)=NO3)cc1 (centres unmarked) [Example 164, 8-(4-methoxy-benzenesulphonyl)-1-oxa-2,8-diaza-spiro[4,5]dec-2-ene-3-carboxylic acid [2-(4-chloro-phenyl)-1-methyl-ethyl]-amide] | 80 | – | 54 |
| 55 | 41 | O=C(NCCc1ccc(Cl)c(Cl)c1)C1=NOC2(CCN(S(=O)(=O)c3ccc(OC(F)(F)F)cc3)CC2)C1 [Example 165] | – | – | – |

Reference: US8557796B2, “Substituted 1-oxa-2,8-diaza-spiro [4,5] dec-2-ene derivatives and related treatment methods” (Gruenenthal GmbH, priority 2001, dated 2013)
